Measured values published in patent US20230086703A1, “N-(4-(5-chloropyridin-3-yl)phenyl)-2-(2-(cyclopropanesulfonamido)pyrimidin-4-yl) butanamide derivatives and related compounds as human CTPS1 inhibitors for the treatment of proliferative diseases” (Step Pharma S.A.S., priority 2019, published 2023).

Key:
[1] = molecular target: T1, human CTPS1 (Homo sapiens, UniProt P17812); test: Human CTPS1 enzyme inhibition, ADP-Glo Max assay; format: biochemical; settings: Table 12, ADP-Glo Max assay; read-out: CTPS1 (Human CTPS1 Enzyme Inhibition data grouped by potency range)
T1 construct: FLAG (with GG linker); His8 (with GG linker); purchased Proteros biostructures GmbH
T1 sequence (P17812 1-591): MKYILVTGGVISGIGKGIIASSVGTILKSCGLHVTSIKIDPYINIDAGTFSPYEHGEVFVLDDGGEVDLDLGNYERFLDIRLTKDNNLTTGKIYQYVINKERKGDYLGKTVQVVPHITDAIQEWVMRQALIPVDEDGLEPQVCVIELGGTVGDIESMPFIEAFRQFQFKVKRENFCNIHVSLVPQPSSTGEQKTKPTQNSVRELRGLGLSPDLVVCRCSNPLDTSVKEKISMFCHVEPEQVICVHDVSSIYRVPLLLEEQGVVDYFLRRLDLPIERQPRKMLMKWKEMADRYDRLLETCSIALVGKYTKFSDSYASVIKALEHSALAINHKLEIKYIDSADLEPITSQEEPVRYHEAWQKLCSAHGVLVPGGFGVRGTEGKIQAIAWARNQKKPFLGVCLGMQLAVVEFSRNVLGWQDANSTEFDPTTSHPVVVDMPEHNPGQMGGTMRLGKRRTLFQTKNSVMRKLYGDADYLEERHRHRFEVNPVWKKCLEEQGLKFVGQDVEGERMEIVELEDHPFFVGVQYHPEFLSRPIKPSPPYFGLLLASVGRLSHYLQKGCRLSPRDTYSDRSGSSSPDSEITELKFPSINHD
Method in brief: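 Enzyme preincubated with compound for 10 min at 25 °C in 50 mM Tris pH 8.0, 10 mM MgCl2, 0.01% Tween-20, 2 mM L-cysteine. ATP-to-ADP conversion detected by ADP-Glo Max luminescence after 60 min depletion and 60 min development steps. Percentage inhibition calculated per concentration.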

[2] = molecular target: T1, human CTPS1; test: RapidFire/MS-based enzyme selectivity assay (human CTPS1 versus CTPS2), CTPS1 isoform; format: biochemical; settings: RapidFire/MS IC50 values of CTPS1 and CTPS2; Table 17
Method in brief: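 Full-length C-terminal FLAG-His-tagged CTPS1 (1-591) was preincubated 10 min at 25 °C with compound in HEPES pH 8.0 buffer with MgCl2, KCl, DTT and Tween-20. Reactions were started with a 2× mix of ATP 0.3 mM, UTP 0.2 mM, GTP 0.07 mM and L-glutamine 0.1 mM, and run in the linear phase at 25 °C. IC50 comes from the RapidFire-MS ratio of CTP to 13C9-15N3-CTP.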

Row | IC50 [1] [nM] | Selectivity (fold selectivity between CTPS1 and CTPS2) [2] | SMILES
1 | < 100 | +++ (>60 fold (+++)) | CCOc1cncc(-c2ccc(NC(=O)C3(c4ccnc(NS(=O)(=O)C5CC5)n4)CCC(N4CCN(C)CC4)CC3)nc2)n1 (stereo not drawn) [P312]
2 | 100 to 1000 | +++ (>60 fold (+++)) | CCOc1cncc(-c2ccc(NC(=O)C3(c4ccnc(NS(=O)(=O)C5CC5)n4)CCC(N4CCCC4)CC3)nc2)n1 (stereo not drawn) [P303]
3 | < 100 | +++ (>60 fold (+++)) | CCOc1cncc(-c2ccc(NC(=O)C3(c4ccnc(NS(=O)(=O)C5CC5)n4)CCN(S(=O)(=O)C(F)(F)F)CC3)nc2)n1 [P292]
4 | < 100 | +++ (>60 fold (+++)) | CCOc1cncc(-c2ccc(NC(=O)C3(c4cncc(NS(=O)(=O)C5CC5)n4)CCN(S(C)(=O)=O)CC3)nc2)n1 [P314]
5 | < 100 | +++ (>60 fold (+++)) | CS(=O)(=O)N1CCC(C(=O)Nc2ccc(-c3cncc(C4CC4)n3)cn2)(c2nccc(NS(=O)(=O)C3CC3)n2)CC1 [P315]
6 | < 100 | +++ (>60 fold (+++)) | CCOc1cncc(-c2ccc(NC(=O)C3(c4ccnc(NS(=O)(=O)CC)n4)CCN(S(=O)(=O)C4CC4)CC3)nc2)n1 [P299]
7 | < 100 | +++ (>60 fold (+++)) | CCOc1cncc(-c2ccc(NC(=O)C3(c4ccnc(NS(=O)(=O)C5CC5)n4)CCN(S(=O)(=O)N(C)C)CC3)nc2)n1 [P291]
8 | < 100 | +++ (>60 fold (+++)) | CCOc1cncc(-c2ccc(NC(=O)C3(c4ccnc(NS(=O)(=O)CC)n4)CCN(S(C)(=O)=O)CC3)nc2)n1 [P297]
9 | < 100 | +++ (>60 fold (+++)) | COC1CCC(C(=O)Nc2ccc(-c3cncc(C4CC4)n3)cn2)(c2ccnc(NS(=O)(=O)C3CC3)n2)CC1 (stereo not drawn) [P313]
10 | < 100 | +++ (>60 fold (+++)) | CCOc1cncc(-c2ccc(NC(=O)C3(c4ccnc(NS(=O)(=O)C5CC5)n4)CCN(S(=O)(=O)c4ccn(C)n4)CC3)nc2)n1 [P293]
11 | < 100 | +++ (>60 fold (+++)) | COC1CCC(C(=O)Nc2ccc(-c3cncc(C4CC4)n3)cn2)(c2ccnc(NS(=O)(=O)C3CC3)n2)CC1 (stereo not drawn) [P301]
12 | < 100 | +++ (>60 fold (+++)) | CCOc1cncc(-c2ccc(NC(=O)C3(c4ccnc(NS(=O)(=O)C5CC5)n4)CCC(N4CCCC4)CC3)nc2)n1 (stereo not drawn) [P302]
13 | < 100 | +++ (>60 fold (+++)) | CCOc1cncc(-c2ccc(NC(=O)C3(c4ccnc(NS(=O)(=O)CC)n4)CCN(S(=O)(=O)c4ccn(C)n4)CC3)nc2)n1 [P300]
14 | 100 to 1000 | +++ (>60 fold (+++)) | CCOc1cncc(-c2ccc(NC(=O)C3(c4ccnc(NS(=O)(=O)C5CC5)n4)CCC(N(C)CCOC)CC3)nc2)n1 (stereo not drawn) [P309]
15 | < 100 | +++ (>60 fold (+++)) | CCOc1cncc(-c2ccc(NC(=O)C3(c4nccc(NS(=O)(=O)C5CC5)n4)CCN(S(=O)(=O)CC)CC3)nc2)n1 [P318]
